# Assay: MRT (0 to infinity) in CD-1 mouse at 5 mg/kg, iv measured upto 24 hrs by LC-MS/MS analysis
# Conditions: in vivo
smiles,measurement,value
Cc1cc(F)cc(C)c1C(=O)c1sc2cc(O)ccc2c1Oc1ccc(OC2CN(CCCF)C2)cc1,MRT,1.07 h

# Reference: ChEMBL document CHEMBL4354825, “Design and Synthesis of Basic Selective Estrogen Receptor Degraders for Endocrine Therapy Resistant Breast Cancer” (J Med Chem, 2019)
